Eleven cell lines from the supplement of paper PMC10307832 can be followed below.

Common to all, as to experiment: relative viability (nuclei count vs DMSO), 5 days (fraction); higher = more cells survive
Compound in the experiment “BMX-IN-1 + Bortezomib”: C=CC(=O)Nc1cc(-n2c(=O)ccc3cnc4ccc(-c5ccc(NS(C)(=O)=O)cc5)cc4c32)ccc1C [BMX-IN-1] + CC(C)C[C@H](NC(=O)[C@H](Cc1ccccc1)NC(=O)c1cnccn1)B(O)O [Bortezomib] (partner 0.002 µM)
In a few lines: (§1)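 Lung cancer cell lines were seeded in 1536-well plates and dosed by pin tool the next day, with either a single drug or a fixed anchor-drug dose combined with five library-drug doses (not always all listed) spaced in √10 steps. Five days later, one step fixed the cells and stained their nuclei (final 0.05% Triton X-100, 1% formaldehyde, 1 ug/ml Hoechst), and nuclei were counted on 4× images. Relative viability is the nuclei count in treated wells divided by the count in vehicle wells, and each value is the median of duplicate plates.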

Compound in the experiment “Ibrutinib + Phenformin”: C=CC(=O)N1CCC[C@@H](n2nc(-c3ccc(Oc4ccccc4)cc3)c3c(N)ncnc32)C1 [Ibrutinib] + N=C(N)NC(=N)NCCc1ccccc1 [Phenformin] (partner 250 µM)
Summed up:
as §1

Compound in the experiment “PAC-1 + Pemetrexed”: C=CCc1cccc(/C=N/NC(=O)CN2CCN(Cc3ccccc3)CC2)c1O [PAC-1] + Nc1nc2[nH]cc(CCc3ccc(C(=O)N[C@@H](CCC(=O)O)C(=O)O)cc3)c2c(=O)[nH]1 [Pemetrexed] (partner 0.2 µM)
Summed up: as §1

Compound in the experiment “Ibrutinib + OSI-027”: C=CC(=O)N1CCC[C@@H](n2nc(-c3ccc(Oc4ccccc4)cc3)c3c(N)ncnc32)C1 [Ibrutinib] + COc1cccc2cc(-c3nc([C@H]4CC[C@H](C(=O)O)CC4)n4ncnc(N)c34)[nH]c12 [OSI-027] (partner 0.5 µM)
Summed up:
as §1

As for 201T, the relative viability worked out at 1.13 with BMX-IN-1 + Bortezomib (first compound 0.02 µM); 1.07 in the experiment with BMX-IN-1 + Bortezomib (first compound 0.2 µM); 1.12 in the experiment with BMX-IN-1 + Bortezomib (first compound 0.6325 µM); 1.1 in the experiment with BMX-IN-1 + Bortezomib (first compound 2 µM); 0.449 with Ibrutinib + Phenformin (first compound 0.005 µM); 0.443 with Ibrutinib + Phenformin (first compound 0.01581 µM). The relative viability came to 0.442 in the experiment with Ibrutinib + Phenformin (first compound 0.05 µM); 0.429 with Ibrutinib + Phenformin (first compound 0.1581 µM); 0.412 with Ibrutinib + Phenformin (first compound 0.5 µM); 0.316 with PAC-1 + Pemetrexed (first compound 0.02 µM); 0.303 with PAC-1 + Pemetrexed (first compound 0.06325 µM); 0.314 with PAC-1 + Pemetrexed (first compound 0.2 µM). The relative viability was found to be 0.334 with PAC-1 + Pemetrexed (first compound 2 µM); 0.758 with Ibrutinib + OSI-027 (first compound 0.005 µM); 0.665 in the experiment with Ibrutinib + OSI-027 (first compound 0.01581 µM); 0.882 with Ibrutinib + OSI-027 (first compound 0.05 µM); 0.608 with Ibrutinib + OSI-027 (first compound 0.1581 µM); 0.762 in the experiment with Ibrutinib + OSI-027 (first compound 0.5 µM).

Take A549: the relative viability came to 0.21 with Ibrutinib + Phenformin (first compound 0.005 µM); 0.135 with Ibrutinib + Phenformin (first compound 0.01581 µM); 0.159 in the experiment with Ibrutinib + Phenformin (first compound 0.05 µM); 0.163 with Ibrutinib + Phenformin (first compound 0.1581 µM); 0.152 with Ibrutinib + Phenformin (first compound 0.5 µM).

In the case of A-427, the relative viability with BMX-IN-1 + Bortezomib (first compound 0.02 µM) is 1.03; in the experiment with BMX-IN-1 + Bortezomib (first compound 0.2 µM), 1.06; with BMX-IN-1 + Bortezomib (first compound 0.6325 µM), 1.18; with BMX-IN-1 + Bortezomib (first compound 2 µM), 0.985; in the experiment with Ibrutinib + Phenformin (first compound 0.005 µM), 0.307; with Ibrutinib + Phenformin (first compound 0.01581 µM), 0.351. In addition, the relative viability in the experiment with Ibrutinib + Phenformin (first compound 0.05 µM) was found to be 0.316; with Ibrutinib + Phenformin (first compound 0.1581 µM) it was 0.27; with Ibrutinib + Phenformin (first compound 0.5 µM), 0.3; in the experiment with PAC-1 + Pemetrexed (first compound 0.02 µM), 0.992; in the experiment with PAC-1 + Pemetrexed (first compound 0.06325 µM), 1.01; with PAC-1 + Pemetrexed (first compound 0.2 µM), 1.09. In addition, the relative viability was 0.977 in the experiment with PAC-1 + Pemetrexed (first compound 2 µM); 0.36 with Ibrutinib + OSI-027 (first compound 0.005 µM); 0.431 in the experiment with Ibrutinib + OSI-027 (first compound 0.01581 µM); 0.512 in the experiment with Ibrutinib + OSI-027 (first compound 0.05 µM); 0.369 with Ibrutinib + OSI-027 (first compound 0.1581 µM); 0.499 in the experiment with Ibrutinib + OSI-027 (first compound 0.5 µM).

As for ABC-1, the relative viability is 0.34 with BMX-IN-1 + Bortezomib (first compound 0.02 µM); 0.302 with BMX-IN-1 + Bortezomib (first compound 0.2 µM); 0.244 in the experiment with BMX-IN-1 + Bortezomib (first compound 0.6325 µM); 0.306 in the experiment with BMX-IN-1 + Bortezomib (first compound 2 µM); 0.185 with Ibrutinib + Phenformin (first compound 0.005 µM); 0.271 in the experiment with Ibrutinib + Phenformin (first compound 0.01581 µM). Besides, the relative viability with Ibrutinib + Phenformin (first compound 0.05 µM) was determined as 0.214; in the experiment with Ibrutinib + Phenformin (first compound 0.1581 µM), 0.24; in the experiment with Ibrutinib + Phenformin (first compound 0.5 µM), 0.29; in the experiment with Ibrutinib + OSI-027 (first compound 0.005 µM), 0.331; with Ibrutinib + OSI-027 (first compound 0.01581 µM), 0.457; with Ibrutinib + OSI-027 (first compound 0.05 µM), 0.479. Besides, the relative viability is 0.441 in the experiment with Ibrutinib + OSI-027 (first compound 0.1581 µM) and 0.547 with Ibrutinib + OSI-027 (first compound 0.5 µM).

As to BEN, the relative viability with BMX-IN-1 + Bortezomib (first compound 0.02 µM) came to 0.808; with BMX-IN-1 + Bortezomib (first compound 0.2 µM), 0.95; with BMX-IN-1 + Bortezomib (first compound 0.6325 µM), 0.7; with BMX-IN-1 + Bortezomib (first compound 2 µM) it was 0.772; with Ibrutinib + Phenformin (first compound 0.01581 µM) it was 0.23; with Ibrutinib + Phenformin (first compound 0.05 µM), 0.282. Besides, the relative viability worked out at 0.283 with Ibrutinib + Phenformin (first compound 0.1581 µM); 0.247 in the experiment with Ibrutinib + Phenformin (first compound 0.5 µM); 0.719 in the experiment with PAC-1 + Pemetrexed (first compound 0.02 µM); 0.74 with PAC-1 + Pemetrexed (first compound 0.06325 µM); 0.718 in the experiment with PAC-1 + Pemetrexed (first compound 0.2 µM); 0.655 with PAC-1 + Pemetrexed (first compound 2 µM). In addition, the relative viability was 0.3 with Ibrutinib + OSI-027 (first compound 0.01581 µM), 0.288 with Ibrutinib + OSI-027 (first compound 0.05 µM) and 0.298 with Ibrutinib + OSI-027 (first compound 0.5 µM).

As to CAL-12T, the relative viability was found to be 0.92 with BMX-IN-1 + Bortezomib (first compound 0.02 µM); 0.785 in the experiment with BMX-IN-1 + Bortezomib (first compound 0.2 µM); 1.17 in the experiment with BMX-IN-1 + Bortezomib (first compound 0.6325 µM); 0.949 with BMX-IN-1 + Bortezomib (first compound 2 µM); 0.546 in the experiment with Ibrutinib + Phenformin (first compound 0.005 µM); 0.447 with Ibrutinib + Phenformin (first compound 0.01581 µM). The relative viability in the experiment with Ibrutinib + Phenformin (first compound 0.05 µM) is 0.362; in the experiment with Ibrutinib + Phenformin (first compound 0.1581 µM), 0.651; with Ibrutinib + Phenformin (first compound 0.5 µM) it was 0.35; with PAC-1 + Pemetrexed (first compound 0.02 µM), 1.22; in the experiment with PAC-1 + Pemetrexed (first compound 0.06325 µM), 1.23; with PAC-1 + Pemetrexed (first compound 0.2 µM), 1.15. In addition, the relative viability was found to be 1.16 with PAC-1 + Pemetrexed (first compound 2 µM); 0.369 with Ibrutinib + OSI-027 (first compound 0.005 µM); 0.579 in the experiment with Ibrutinib + OSI-027 (first compound 0.01581 µM); 0.601 in the experiment with Ibrutinib + OSI-027 (first compound 0.05 µM); 0.569 in the experiment with Ibrutinib + OSI-027 (first compound 0.1581 µM); 0.562 in the experiment with Ibrutinib + OSI-027 (first compound 0.5 µM).

COR-L23: the relative viability with BMX-IN-1 + Bortezomib (first compound 0.02 µM) turned out to be 1.27; in the experiment with BMX-IN-1 + Bortezomib (first compound 0.2 µM), 1.54; with BMX-IN-1 + Bortezomib (first compound 0.6325 µM), 1.09; with BMX-IN-1 + Bortezomib (first compound 2 µM), 1.05; with Ibrutinib + Phenformin (first compound 0.005 µM) it was 0.491; with Ibrutinib + Phenformin (first compound 0.01581 µM), 0.408. Besides, the relative viability in the experiment with Ibrutinib + Phenformin (first compound 0.05 µM) was determined as 0.454; in the experiment with Ibrutinib + Phenformin (first compound 0.1581 µM), 0.472; with Ibrutinib + Phenformin (first compound 0.5 µM), 0.445; in the experiment with PAC-1 + Pemetrexed (first compound 0.02 µM), 0.206; with PAC-1 + Pemetrexed (first compound 0.06325 µM), 0.192; in the experiment with PAC-1 + Pemetrexed (first compound 2 µM), 0.206. Moreover, the relative viability with Ibrutinib + OSI-027 (first compound 0.005 µM) was 0.644; with Ibrutinib + OSI-027 (first compound 0.01581 µM) it was 0.731; with Ibrutinib + OSI-027 (first compound 0.05 µM), 0.762; with Ibrutinib + OSI-027 (first compound 0.1581 µM), 0.875; with Ibrutinib + OSI-027 (first compound 0.5 µM), 0.882.

For COR-L 105, the relative viability in the experiment with BMX-IN-1 + Bortezomib (first compound 0.02 µM) was determined as 0.965; with BMX-IN-1 + Bortezomib (first compound 0.2 µM), 0.697; with BMX-IN-1 + Bortezomib (first compound 0.6325 µM) it was 1.03; with BMX-IN-1 + Bortezomib (first compound 2 µM), 0.659; in the experiment with Ibrutinib + Phenformin (first compound 0.005 µM), 0.455; in the experiment with Ibrutinib + Phenformin (first compound 0.01581 µM), 0.348. The relative viability was 0.406 in the experiment with Ibrutinib + Phenformin (first compound 0.05 µM); 0.531 with Ibrutinib + Phenformin (first compound 0.1581 µM); 0.242 with Ibrutinib + Phenformin (first compound 0.5 µM); 0.983 with PAC-1 + Pemetrexed (first compound 0.02 µM); 1.1 in the experiment with PAC-1 + Pemetrexed (first compound 0.06325 µM); 1.04 with PAC-1 + Pemetrexed (first compound 0.2 µM). In addition, the relative viability came out at 1.05 with PAC-1 + Pemetrexed (first compound 2 µM); 0.393 in the experiment with Ibrutinib + OSI-027 (first compound 0.005 µM); 0.467 with Ibrutinib + OSI-027 (first compound 0.01581 µM); 0.389 with Ibrutinib + OSI-027 (first compound 0.05 µM); 0.609 with Ibrutinib + OSI-027 (first compound 0.1581 µM); 0.31 with Ibrutinib + OSI-027 (first compound 0.5 µM).

As to Calu-6, the relative viability stood at 1.03 with BMX-IN-1 + Bortezomib (first compound 0.02 µM), 1.09 with BMX-IN-1 + Bortezomib (first compound 0.2 µM), 1.31 with BMX-IN-1 + Bortezomib (first compound 0.6325 µM) and 1.07 with BMX-IN-1 + Bortezomib (first compound 2 µM).

Turning to ChaGo-K-1, the relative viability with BMX-IN-1 + Bortezomib (first compound 0.02 µM) turned out to be 1.08; with BMX-IN-1 + Bortezomib (first compound 0.2 µM), 1.1; in the experiment with BMX-IN-1 + Bortezomib (first compound 0.6325 µM), 1.31; with BMX-IN-1 + Bortezomib (first compound 2 µM) it was 1.17; with Ibrutinib + Phenformin (first compound 0.005 µM), 0.543; with Ibrutinib + Phenformin (first compound 0.01581 µM), 0.462. Besides, the relative viability turned out to be 0.433 with Ibrutinib + Phenformin (first compound 0.05 µM); 0.407 with Ibrutinib + Phenformin (first compound 0.1581 µM); 0.494 with Ibrutinib + Phenformin (first compound 0.5 µM); 0.256 with PAC-1 + Pemetrexed (first compound 0.02 µM); 0.252 in the experiment with PAC-1 + Pemetrexed (first compound 0.06325 µM); 0.258 with PAC-1 + Pemetrexed (first compound 0.2 µM). The relative viability with PAC-1 + Pemetrexed (first compound 2 µM) came out at 0.265; with Ibrutinib + OSI-027 (first compound 0.005 µM), 0.582; in the experiment with Ibrutinib + OSI-027 (first compound 0.01581 µM), 0.521; with Ibrutinib + OSI-027 (first compound 0.05 µM) it was 0.482; with Ibrutinib + OSI-027 (first compound 0.1581 µM), 0.414; in the experiment with Ibrutinib + OSI-027 (first compound 0.5 µM), 0.63.

Turning to EBC-1, the relative viability was 0.574 in the experiment with BMX-IN-1 + Bortezomib (first compound 0.02 µM), 0.581 in the experiment with BMX-IN-1 + Bortezomib (first compound 0.2 µM), 0.626 with BMX-IN-1 + Bortezomib (first compound 0.6325 µM) and 0.598 with BMX-IN-1 + Bortezomib (first compound 2 µM).
